# PMC10229426, “An optimized bioluminescent substrate for non-invasive imaging in the brain” (Nature Chemical Biology, 2023)
# Several values for one entry are separate records, joined by “and”; a condition that tells them apart may be missing. Equal entries are not always repeated. Entries after “also recorded” stand apart in the source; their conditions may differ.
# Columns and labels:
# [1] = Toxicity in mice: necropsy and histopathology; format: in vivo, C57BL/6 mice; set-up: key: 0: absent; 1: minimal; 2: mild; 3: moderate; 4: severe; conditions: 1 day, 4.2 µmol, 20 mg P-407; individual mice
# Protocol: (§1) Male C57BL/6 mice of 2 months of age were killed by CO2 asphyxiation and cardiac exsanguination. All mice were weighed, and a complete gross examination of the external and internal organs was performed. […] Formalin-fixed tissues were processed routinely, embedded in paraffin, sectioned at 5 μm and stained with hematoxylin and eosin. All slides were blindly evaluated for histologic treatment-related effects (Supplementary Table 1) by a board-certified veterinary pathologist.
# [2] = Toxicity in mice: necropsy and histopathology; format: in vivo, C57BL/6 mice; set-up: key to BMH, brain multifocal hemorrhage score / HN, hepatocellular necrosis score / RTD, renal tubular dilation score / RTDR, renal tubular degeneration and regeneration score: 0: absent; 1: minimal; 2: mild; 3: moderate; 4: severe; key to HMNH, heart myocardial necrosis and hemorrhage score: 0: no lesions; 1: <5% of myocardium affected; 2: 5-10% affected; 3: 10-25% affected; 4: >25% affected; key to LC, Liver capsule score: 0: normal; 1: segmental subcapsular necrosis +/- neutrophilic infiltrate; Total organ score: scale not given here
# Protocol: as §1
# [3] = molecular target: T1, Antares luciferase (Oplophorus gracilirostris, UniProt Q9GV45, A31E/A60N/A81I/F95D/I117V/K70R/L54V/L99Q/M102K/N193R/P142E/Q151K/Q38R/Q45L/V71I/Y165I); assay: Bioluminescence imaging of transgenic mice for substrate comparison (brain, Cre-driven Antares); format: in vivo, mouse
# T1 construct: expressed in transfected cells; host or cells: transgenic mice with CAG-LSL-Antares at the H11 locus, crossed to Cre driver lines (neurons or liver)
# T1 sequence (Q9GV45 other isoform, or with tags, fused parts or gaps with the stated changes): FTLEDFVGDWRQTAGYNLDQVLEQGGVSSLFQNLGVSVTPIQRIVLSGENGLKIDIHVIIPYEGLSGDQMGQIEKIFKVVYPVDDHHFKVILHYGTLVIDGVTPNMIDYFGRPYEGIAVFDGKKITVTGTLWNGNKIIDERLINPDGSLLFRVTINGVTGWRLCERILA
# Source text: (§2) Transgenic reporter mice with LSL-CAG-luciferase (Antares, FLuc or AkaLuc) inserted at the H11 locus (H11P) were generated by φC31-mediated recombination in blastocysts[48] by the Stanford Transgenic, Knockout and Tumor Model Center. For substrate comparisons, 2- to 4-month-old transgenic mice doubly hemizygous for a Camk2a-cre (Jackson Laboratory, 005359), Vgat-IRES-cre (Jackson Laboratory), Vglut2-IRES-cre (Jackson Laboratory, 016963) or Alb-cre (Jackson Laboratory, 003574) driver and a CAG-LSL-Antares, CAG-LSL-AkaLuc or CAG-LSL-FLuc reporter were anesthetized by inhalation of isoflurane for 5 min. An electric shaver was used to remove scalp hair in Camk2a-cre, Vglut2-IRES-cre or Vgat-IRES-cre mice or abdominal hair in Alb-cre mice. Nair depilatory cream (Church and Dwight) was then applied to the shaved area for 1 min, and remaining hair was removed with a piece of sterile gauze. The area was then rinsed with DPBS and cleaned with 70% ethanol with a piece of sterile gauze.
# For mice expressing Antares, indicated amounts of Fz were dissolved in 480 µl of a PEG-300-based formulation consisting of 10% glycerol, 10% ethanol, 10% hydroxypropylcyclodextrin and 35% PEG-300 in water, or indicated amounts of lyophilized Fz analogs with P-407 vehicle were reconstituted in 150–500 µl of DPBS buffer. For mice expressing FLuc, indicated amounts of D-luciferin were dissolved in PBS. For mice expressing AkaLuc, 3 μmol (1.0 mg) of AkaLumine-HCl (Sigma-Aldrich) was dissolved in 150 μl of 0.9% NaCl. Substrates were then injected into the peritoneal cavity in the left lower quadrant, with the maximum injectable volume at 480 µl. Immediately after substrate injection, bioluminescent images were acquired in an Ami HT bioluminescence imaging system running Aura software version 3.1 or 4.0 (Spectral Instruments Imaging) for 15–30 min at intervals of 1 min. For comparing substrates at 1.3 µmol, the following imager settings were used: emission filter open, field of view of 25 cm, f-stop of 1.2, binning of 2 × 2 and exposure time of 2 s. For comparison with >1.3-µmol substrates, the following settings were used: emission filter open, field of view of 25 cm, f-stop of 1.2, binning of 1 × 1 and exposure time of 1 s. Pseudocolor images and intensity scale bars were generated with Aura software. Integrated luminescence was quantified using the Fiji version of the ImageJ program (NIH)[49], with further statistical analysis performed in GraphPad Prism (version 9.0.0).
# [4] = probably due to acidity of the solution; cited from earlier work
# [5] = system: AkaLuc; assay: Bioluminescence imaging of transgenic mice expressing AkaLuc in the brain; format: in vivo, mouse; conditions: 3.0- or 1.3-µmol doses
# Source text: as §2, with “The area was then rinsed with DPBS and cleaned with 70% ethanol with a piece of sterile gauze.” left out
# (§3) For mice expressing Antares, indicated amounts of Fz were dissolved in 480 µl of a PEG-300-based formulation consisting of 10% glycerol, 10% ethanol, 10% hydroxypropylcyclodextrin and 35% PEG-300 in water, or indicated amounts of lyophilized Fz analogs with P-407 vehicle were reconstituted in 150–500 µl of DPBS buffer. […] Integrated luminescence was quantified using the Fiji version of the ImageJ program (NIH)[49], with further statistical analysis performed in GraphPad Prism (version 9.0.0).
# [6] = molecular target: T1, Antares luciferase; assay: Non-invasive detection of Antares in the liver (Alb-cre driver); format: in vivo, mouse; conditions: 1.3 µmol i.p.
# Source text: as §2, with “The area was then rinsed with DPBS and cleaned with 70% ethanol with a piece of sterile gauze.” left out
# as §3
# [7] = Solubility in aqueous formulation with poloxamer-407 (P-407); format: physicochemical
# Protocol: Stock samples of solid formulated Fz analogs were prepared using the following protocol. First, P-407 (Pluronic F127) was placed into a screw-cap glass vial. The polymer was then heated to 75 °C in a water bath until melted. Fz analogs dissolved in ethanol were added to the hot polymer, mixing well with a thin spatula. Additional rinses of Fz analogs in ethanol were added to the hot polymer for quantitative transfer. The solvent was then removed under vacuum. This concentrated sample was diluted with water to make a dispensing mixture of 4–9 mM Fz analogs in water. Next, this aqueous stock was aliquoted into glass vials, frozen and lyophilized overnight to give a yellow cake. For i.p. injection into mice, DPBS (Corning, 21-031-CV) was added to the vial and rocked to create a clear solution.
# [8] = 1 day, 4.2 µmol, 20 mg P-407, individual mice
# [9] = i.p., CAG-LSL-Antares x Vgat-IRES-cre mice
smiles,measurement,setting,value
Cc1ccc(Cc2nc3c(Cc4ccccc4F)[nH]c(-c4cccc(F)c4F)cn-3c2=O)o1 [compound 13],"HPMC, heart perivascular myxomatous change score",[1],0
same,"HT, heart telangiectasia score",[1],0
same,"KCHMV, Kupffer cell hyperplasia and microvesicular vacuolation score",[1],0
same,toxicity after a single i.p. injection,"[2]; 4.2 µmol with 20 mg P-407, one injection",severe kidney pathology and weight loss; also recorded: more toxic than 6
same,"BMH, brain multifocal hemorrhage score",[2]; [8],0
same,"HMNH, heart myocardial necrosis and hemorrhage score",[2]; [8],0
same,"HN, hepatocellular necrosis score",[2]; [8],0
same,"LC, Liver capsule score",[2]; [8],0
same,"RTD, renal tubular dilation score",[2]; [8],2 (5%–25% of tubules affected) (2×) and 3 (25%–50% of tubules affected)
same,"RTDR, renal tubular degeneration and regeneration score",[2]; [8],3 (25%–50% of tubules affected) (2×) and 2 (5%–25% of tubules affected)
same,"SRPHMV, splenic red pulp histiocytosis with microvesicular vacuolation score",[2]; [8],0
same,Total organ score,[2]; [8],5 and 4 and 6
same,∆ weight,[2]; [8],–7.9%; also recorded: –7.2%; also recorded: –6.7%
same,brain brightness relative to 6,[3]; 1.3 µmol i.p. with 10 mg P-407,brighter
same,brain brightness relative to 6 (factor),"[3]; 1.3 µmol i.p. with 10 mg P-407, Vglut2-IRES-cre or CaMKIIα-cre",1.5–2.0
"O=c1c(Cc2ccco2)nc2c(Cc3ccccc3)[nH]c(-c3cccc(O)c3)cn1-2 [HFz, hydrofurimazine, reference compound]",brain signal brightness relative to Fz,[3]; [9],more than tenfold dimmer
same,brain signal distribution,[3]; [9],signal from the brain similar to Fz
CN(C)c1ccc(/C=C/C=C/C2=N[C@@H](C(=O)O)CS2)cc1 [AkaLumine],toxicity of administered solution,[4],noticeable toxicity of the Akalumine solution to the skin and heart
same,duration of brain signal relative to Antares–CFz,[5],more sustained signal
"Nc1cccc(-c2cn3c(=O)c(Cc4ccco4)nc-3c(Cc3ccccc3F)[nH]2)c1F [FFz, fluorofurimazine, reference compound]","liver signal, 6 versus FFz",[6],brighter in the liver
same,brain signal distribution,[3]; Antares driven by Camk2a-cre,signal predominantly from the hindbrain
same,brain signal distribution,[3]; [9],"low brightness from the forebrain, higher signal from the hindbrain, and highest signal from regions in the head outside the brain"
Cc1ccc(Cc2nc3c(Cc4ccccc4)[nH]c(-c4cccc(F)c4F)cn-3c2=O)o1 [compound 10],relative solubility in aqueous formulation with P-407,[7],reduced solubility
same,solubilization of 4.2 µmol in P-407 formulation,[7]; 4.2 µmol,incomplete solubilization
